Earlier results, collected in patent US8906391B2, “Thermorod for active drug release and method for manufacturing the same” (Korea Sangsa Co., Ltd., priority 2008, dated 2014).

details: characteristics of the drugs, Table 1

| Structure (SMILES) | Hydrophobicity (Log P) |
| --- | --- |
| CC(=O)O[C@@]12CO[C@@H]1C[C@H](O)[C@@]1(C)C(=O)[C@H](O)C3=C(C)[C@@H](OC(=O)[C@H](O)[C@@H](NC(=O)OC(C)(C)C)c4ccccc4)C[C@@](O)([C@@H](OC(=O)c4ccccc4)[C@H]21)C3(C)C [Docetaxel] | 4.258 |
| CC[C@H]1OC(=O)[C@H](C)[C@@H](O[C@H]2C[C@@](C)(OC)[C@@H](O)[C@H](C)O2)[C@H](C)[C@@H](O[C@@H]2O[C@H](C)C[C@H](N(C)C)[C@H]2O)[C@](C)(O)C[C@@H](C)C(=O)[C@H](C)[C@@H](O)[C@]1(C)O [Erythromycin] | 3.06 |
| CC(=O)Nc1ccc(O)cc1 [Acetaminophen] | 0.917 |
| CC(=O)O[C@H]1C(=O)[C@@]2(C)[C@H]([C@H](OC(=O)c3ccccc3)[C@]3(O)C[C@H](OC(=O)[C@H](O)[C@@H](NC(=O)c4ccccc4)c4ccccc4)C(C)=C1C3(C)C)[C@]1(OC(C)=O)CO[C@@H]1C[C@@H]2O [Paclitaxel] | 5.029 |
